According to US9062050B2, “Inhibitor of JAK1 and JAK2” (Eli Lilly and Company, priority 2012, dated 2015):

Legend:
JAK3 = molecular target: T1, JAK3 (Homo sapiens, UniProt P52333); experiment: JAK LanthaScreen Kinase Assay (TR-FRET), JAK3; format: biochemical
T1 sequence (P52333 1-1124): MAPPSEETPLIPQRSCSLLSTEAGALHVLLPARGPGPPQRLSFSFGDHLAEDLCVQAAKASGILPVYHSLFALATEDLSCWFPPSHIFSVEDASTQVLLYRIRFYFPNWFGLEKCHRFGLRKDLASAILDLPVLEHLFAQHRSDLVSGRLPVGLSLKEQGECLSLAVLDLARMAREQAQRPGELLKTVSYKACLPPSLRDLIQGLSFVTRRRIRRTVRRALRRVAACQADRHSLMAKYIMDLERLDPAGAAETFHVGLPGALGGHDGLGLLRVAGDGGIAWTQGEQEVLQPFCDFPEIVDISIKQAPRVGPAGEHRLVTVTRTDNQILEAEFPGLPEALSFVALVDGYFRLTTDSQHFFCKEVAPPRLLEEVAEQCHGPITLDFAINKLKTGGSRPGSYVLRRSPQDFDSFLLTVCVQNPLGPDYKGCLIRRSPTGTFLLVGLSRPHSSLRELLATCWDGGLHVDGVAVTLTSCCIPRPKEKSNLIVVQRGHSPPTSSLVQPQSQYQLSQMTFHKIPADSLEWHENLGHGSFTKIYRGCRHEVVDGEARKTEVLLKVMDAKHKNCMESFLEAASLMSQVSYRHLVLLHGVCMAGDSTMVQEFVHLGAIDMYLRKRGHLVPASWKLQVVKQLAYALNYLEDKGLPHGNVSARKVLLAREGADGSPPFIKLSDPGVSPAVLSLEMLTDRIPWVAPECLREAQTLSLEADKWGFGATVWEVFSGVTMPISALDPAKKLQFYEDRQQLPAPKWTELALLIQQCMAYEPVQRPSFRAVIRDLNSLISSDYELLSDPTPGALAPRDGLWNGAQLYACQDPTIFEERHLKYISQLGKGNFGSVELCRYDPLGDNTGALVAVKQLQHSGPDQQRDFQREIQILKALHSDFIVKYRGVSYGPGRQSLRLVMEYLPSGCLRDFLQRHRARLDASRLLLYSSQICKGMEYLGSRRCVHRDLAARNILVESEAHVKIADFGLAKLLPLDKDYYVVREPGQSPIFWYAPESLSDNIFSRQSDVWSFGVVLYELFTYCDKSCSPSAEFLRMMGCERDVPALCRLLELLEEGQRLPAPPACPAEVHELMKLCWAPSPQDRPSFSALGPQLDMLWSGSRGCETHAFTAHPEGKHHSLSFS
Description: The JAK LanthaScreen™ Kinase Assay (Life Technologies, #PV4844) is used to determine compound IC50 values against the JAK1, JAK2, and JAK3 kinases. This kinase assay is a Time Resolved Fluorescence Resonance Energy Transfer (TR-FRET) assay format that uses long-lifetime terbium (Tb) labeled antibody as the donor species and Green Fluorescent Protein-Signal Transducers and Activators of Transcription (GFP-STAT1) as the acceptor species.
The TR-FRET ratio is used to monitor JAK1, JAK2, or JAK3 activity where an increase in phosphorylation of the GFP-STAT1 results in an increase in the TR-FRET ratio. Perform the kinase reaction using a 12.5 microliter reaction volume in shallow black 384-well Proxiplate (PerkinElmer, #6008260). […] Incubate at room temperature for 90 minutes, and read in an EnVision plate reader (PerkinElmer, #2104-0010) with 340 nm wavelength excitation filter and emission filters of 520 nm and 495 nm wavelengths. The ratio is derived from the emission wavelength for the GFP-STAT1 which is measured at 520 nanometer versus the emission at 495 nanometer for the Tb-anti-pSTAT1[pTyr701]. Derive the IC50 value for the compound using percent inhibition data, which is calculated from the reaction data relative to on-plate controls (active enzyme versus 2.0 micromolar control-inhibited enzyme). […]

phosphorylation of STAT3 = experiment: SUM-159-MSD-pSTAT3 cell-based assay; settings: SUM159; Sum-159 breast cancer cells, human IL-6 stimulated; read-out: IC50, inhibits the phosphorylation of STAT3
Method: The SUM-159-MSD-pSTAT3 cell-based assay is used to examine the potency of compounds at blocking STAT3 phosphorylation in breast cancer cells. Sum-159 cells (Asterand) are grown and maintained in HAM's F-12 medium (Gibco 11765-054) with 5% FBS, insulin (5 microgram/mL) and hydrocortisone (1 μg/ml). Cells are collected, counted, plated at 4×10^4 cells/well in 96-well plates, and cultured for overnight at 37° C. with 5% CO2. Culture medium is then removed and replaced with F-12-medium containing either vehicle (DMSO) alone or 2× final concentrations of compounds across a range from 0-20 μM at 1:3 dilutions (10 concentration points). After incubation for five additional hours, medium is removed and cells are treated with 100 microliters of 2× human IL-6 (20 ng/mL diluted in F-12 complete medium) and incubated for an additional 20 minutes at 37° C. in 5% CO2. […] The 96-well plates are sealed and then mixed for 2 minutes on an orbital shaker at room temperature, and then immediately frozen at −80° C. overnight. pSTAT3 is detected with the use of the MA6000 MSD Whole Cell Lysate Kit for Phospho-STAT-3 (Tyr 705) (Meso Scale Diagnostics, #K150DID-2) as described above. Plates are read by using a MSD plate reader. Data are analyzed using Graph Pad program.

Cc1cc(Nc2ccc3ncn([C@@H]4CCc5ccc(F)cc54)c3n2)[nH]n1.Cl.Cl [Example 1, 3-[(1R)-6-fluoro-2,3-dihydro-1H-inden-1-yl]-N-(3-methyl-1H-pyrazol-5-yl)-3H-imidazo[4,5-b]pyridin-5-amine dihydrochloride]
IC50 (JAK3; enzyme assay, 2 micromolar ATP, n=6, read-out: IC50 against JAK3): 8 nM
selectivity for JAK1 and JAK2 over JAK3 in the enzyme assays (JAK3; enzyme assays, JAK1 and JAK2 versus JAK3): greater than four-fold
IC50 (phosphorylation of STAT3): 21 nM
